“And” between values parts separate entries of the source, which are not always exact repeats. Identical values can stand only once. Inconclusive results and toxic doses are left out.

The text below walks through data of PubChem BioAssay AID330 (DTP/NCI, 2004).

The subject of the assay is P388 leukemia ip, CD2F1 mice, survival T/C. The assay can be described thus: NCI In Vivo Anticancer Drug Screen. Data for tumor model P388 Leukemia (intraperitoneal) in CD2F1 (CDF1) mice. The following applies: endpoint: median survival time, higher = longer survival. In short, it runs like this:
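Mice carrying the transplanted tumor received test compound or vehicle. Survival was recorded in each group, and the value is the treated-group measurement divided by that of the vehicle-treated control group.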

The mark [1] stands for this setting: dose: 50.0 mg/kg/injection, schedule: Q01DX005 (ip), vehicle: saline.
[2] abbreviates: dose: 100.0 mg/kg/injection, schedule: Q01DX005 (ip), vehicle: saline.
[3] abbreviates: dose: 60.0 mg/kg/injection, schedule: Q01DX005 (ip), vehicle: saline with Tween-80.
Where [4] appears, read: dose: 120.0 mg/kg/injection, schedule: Q01DX005 (ip), vehicle: saline with Tween-80.
Where [5] appears, read: dose: 240.0 mg/kg/injection, schedule: Q01DX005 (ip), vehicle: saline with Tween-80.
Setting [6] is: dose: 50.0 mg/kg/injection, schedule: Q01DX009 (ip), vehicle: saline.
Where [7] appears, read: dose: 100.0 mg/kg/injection, schedule: Q01DX009 (ip), vehicle: saline.
Where [8] appears, read: dose: 200.0 mg/kg/injection, schedule: Q01DX009 (ip), vehicle: saline.
Setting [9] is: dose: 25.0 mg/kg/injection, schedule: Q01DX001 (ip), vehicle: saline.
Setting [10] is: dose: 100.0 mg/kg/injection, schedule: Q01DX001 (ip), vehicle: saline.
The mark [11] stands for this setting: dose: 200.0 mg/kg/injection, schedule: Q01DX001 (ip), vehicle: saline.
[12] abbreviates: dose: 60.0 mg/kg/injection, schedule: Q01DX005 (ip), vehicle: saline.
[13] abbreviates: dose: 120.0 mg/kg/injection, schedule: Q01DX005 (ip), vehicle: saline.
[14] abbreviates: dose: 240.0 mg/kg/injection, schedule: Q01DX005 (ip), vehicle: saline.
Setting [15] is: dose: 100.0 mg/kg/injection, schedule: Q04DX003 (ip), vehicle: saline.
[16] abbreviates: dose: 200.0 mg/kg/injection, schedule: Q04DX003 (ip), vehicle: saline.
Where [17] appears, read: dose: 400.0 mg/kg/injection, schedule: Q04DX003 (ip), vehicle: saline.

On to `COc1ccc2c3c([nH]c2c1)C(C)=NCC3`, for which the T/C reads like this: under setting [1], 100 % of control; under setting [2], 105 % of control.

`OC1Cc2ccccc2CC1NC1CCCCC1` (stereo unspecified): the T/C under setting [1] was 108 % of control and the T/C under setting [2] was 98 % of control.

In the case of `Clc1ccc(C=NCCN=Cc2ccc(Cl)c(Cl)c2)cc1Cl`, the T/C runs as follows: (dose: 100.0 mg/kg/injection, schedule: Q04DX003 (ip), vehicle: saline with Tween-80) 90 % of control; (dose: 200.0 mg/kg/injection, schedule: Q04DX003 (ip), vehicle: saline with Tween-80) 95 % of control; (dose: 400.0 mg/kg/injection, schedule: Q04DX003 (ip), vehicle: saline with Tween-80) 90 % of control.

On to `C[C@]12CC[C@H]3[C@@H](CC=C4C[C@@H](O)CC[C@@]43C)[C@@H]1CC[C@@H]2N(CCO)CCO`, for which the T/C reads like this: (dose: 50.0 mg/kg/injection, schedule: Q01DX005 (ip), vehicle: Klucel (hydroxypropylcellulose) (HPC)) 96 % of control; (dose: 100.0 mg/kg/injection, schedule: Q01DX005 (ip), vehicle: Klucel (hydroxypropylcellulose) (HPC)) 100 % of control; (dose: 200.0 mg/kg/injection, schedule: Q01DX005 (ip), vehicle: Klucel (hydroxypropylcellulose) (HPC)) 97 % of control.

Turning to `C(=Nc1ccc2ccccc2c1)Nc1ccc2ccccc2c1.[Cu+2]`, the T/C reads like this: (dose: 25.0 mg/kg/injection, schedule: Q01DX009 (ip), vehicle: saline) 115 % of control; (dose: 50.0 mg/kg/injection, schedule: Q01DX009 (ip), vehicle: saline with Tween-80) 117 % of control.

Take `COc1cccc(C2c3cc4c(cc3OC(N3CCCC3)C2C)OCO4)c1O` (stereo unspecified): the T/C reads like this: under setting [3], 103 % of control; under setting [4], 90 % of control; under setting [5], 88 % of control.

As to `CCCC(O)C(C(=O)OCC)C(=O)OCC` (stereo unspecified), the T/C reads like this: under setting [6], 95 % of control; under setting [7], 95 % of control; under setting [8], 94 % of control.

For `COc1cccc2c1C(=O)c1c(O)c3c(c(O)c1C2=O)CC(O)(C(=O)CO)CC3OC1CC(N(Cc2ccccc2)Cc2ccccc2)C(O)C(C)O1` (stereo unspecified), the T/C is 115 % of control (dose: 0.2 mg/kg/injection, schedule: Q01DX009 (ip), vehicle: water); 151 % of control (dose: 1.56 mg/kg/injection, schedule: Q01DX009 (ip), vehicle: water); 156 % of control (dose: 3.13 mg/kg/injection, schedule: Q01DX009 (ip), vehicle: water); 175 % of control (dose: 6.25 mg/kg/injection, schedule: Q01DX009 (ip), vehicle: water).

With `CC(C)Cc1c(O)c(N=Nc2ccc(C(=O)O)c(O)c2)c2ccccc2c1O`, the T/C runs as follows: (dose: 100.0 mg/kg/injection, schedule: Q04DX002 (ip), vehicle: distilled water + alcohol) 99 % of control; (dose: 200.0 mg/kg/injection, schedule: Q04DX002 (ip), vehicle: distilled water + alcohol) 97 % of control.

Turning to `COc1ccc2cc1Oc1ccc(cc1)C[C@H]1c3c(cc(OC)c(O)c3Oc3cc4c(cc3OC)CCN(C)[C@@H]4C2)CCN1C`, the T/C is 101 % of control under setting [9]; 106 % of control (dose: 50.0 mg/kg/injection, schedule: Q01DX001 (ip), vehicle: saline); 106 % of control under setting [10]; 100 % of control under setting [11].

With `NCCOCCN`, the T/C was 100 % of control under setting [12], 101 % of control under setting [13] and 95 % of control under setting [14].

As to `NC(=O)c1nc2ccccn2c1[N+](=O)[O-]`, the T/C by setting is: (dose: 50.0 mg/kg/injection, schedule: Q01DX009 (ip), vehicle: Klucel (hydroxypropylcellulose) (HPC)) 99 % of control; (dose: 100.0 mg/kg/injection, schedule: Q01DX009 (ip), vehicle: Klucel (hydroxypropylcellulose) (HPC)) 101 % of control; (dose: 200.0 mg/kg/injection, schedule: Q01DX009 (ip), vehicle: Klucel (hydroxypropylcellulose) (HPC)) 108 % of control.

For the compound `CCOP(O)(=S)OCC`, the T/C was 94 % of control (dose: 12.5 mg/kg/injection, schedule: Q01DX001 (ip), vehicle: saline); 100 % of control under setting [9]; 89 % of control (dose: 100.0 mg/kg/injection, schedule: Q01DX001 (ip), vehicle: Klucel (hydroxypropylcellulose) (HPC)); 103 % of control under setting [10]; 92 % of control (dose: 100.0 mg/kg/injection, schedule: Q04DX003 (ip), vehicle: Klucel (hydroxypropylcellulose) (HPC)); 88 % of control under setting [15]. Further, the T/C runs as follows: (dose: 200.0 mg/kg/injection, schedule: Q01DX001 (ip), vehicle: Klucel (hydroxypropylcellulose) (HPC)) 108 % of control; under setting [11], 98 % of control and 106 % of control; (dose: 200.0 mg/kg/injection, schedule: Q04DX003 (ip), vehicle: Klucel (hydroxypropylcellulose) (HPC)) 89 % of control; under setting [16], 90 % of control; (dose: 400.0 mg/kg/injection, schedule: Q01DX001 (ip), vehicle: Klucel (hydroxypropylcellulose) (HPC)) 92 % of control; (dose: 400.0 mg/kg/injection, schedule: Q01DX001 (ip), vehicle: saline) 108 % of control and 106 % of control. Further, the T/C is 90 % of control (dose: 400.0 mg/kg/injection, schedule: Q04DX003 (ip), vehicle: Klucel (hydroxypropylcellulose) (HPC)) and 101 % of control under setting [17].

Take `Cc1cc(O)c(Cl)cc1Cl`: the T/C reads like this: under setting [7], 100 % of control; under setting [8], 99 % of control; (dose: 400.0 mg/kg/injection, schedule: Q01DX009 (ip), vehicle: saline) 97 % of control.

On to `c1ccc(COCC(COCc2ccccc2)(COCc2ccccc2)COCc2ccccc2)cc1`, for which the T/C was 105 % of control (dose: 12.5 mg/kg/injection, schedule: Q01DX009 (ip), vehicle: saline + alcohol); 104 % of control (dose: 25.0 mg/kg/injection, schedule: Q01DX009 (ip), vehicle: saline + alcohol); 97 % of control (dose: 50.0 mg/kg/injection, schedule: Q01DX009 (ip), vehicle: saline + alcohol).

`C[N+]1([O-])CC[N+](C)([O-])CC1` (stereo unspecified): the T/C is, setting by setting: under setting [12], 103 % of control; under setting [13], 96 % of control; under setting [14], 100 % of control.

For the compound `O=C(CC(=O)c1ccccc1)c1ccccc1.[Tl]`, the T/C runs as follows: (dose: 6.25 mg/kg/injection, schedule: Q01DX009 (ip), vehicle: saline with Tween-80) 100 % of control; (dose: 12.5 mg/kg/injection, schedule: Q01DX009 (ip), vehicle: saline with Tween-80) 98 % of control.

Regarding `CCN(CC)CCOc1cccc(NC(=O)CN(CC)CC)c1`, the T/C is 106 % of control (dose: 15.0 mg/kg/injection, schedule: Q01DX005 (ip), vehicle: Klucel (hydroxypropylcellulose) (HPC)); 103 % of control (dose: 30.0 mg/kg/injection, schedule: Q01DX005 (ip), vehicle: Klucel (hydroxypropylcellulose) (HPC)); 105 % of control and 96 % of control (dose: 60.0 mg/kg/injection, schedule: Q01DX005 (ip), vehicle: Klucel (hydroxypropylcellulose) (HPC)).

In the case of `COc1ccc(N=c2nc3n4c(c(Cl)cc(Cl)c4n2)NC(C(Cl)(Cl)Cl)=N3)cc1`, the T/C runs as follows: (dose: 60.0 mg/kg/injection, schedule: Q01DX005 (ip), vehicle: Klucel + Tween-80) 93 % of control; (dose: 120.0 mg/kg/injection, schedule: Q01DX005 (ip), vehicle: Klucel + Tween-80) 92 % of control; (dose: 240.0 mg/kg/injection, schedule: Q01DX005 (ip), vehicle: Klucel + Tween-80) 96 % of control.

Regarding `O=C(CO)N(O)c1ccc(Cl)cc1`, the T/C (dose: 50.0 mg/kg/injection, schedule: Q01DX009 (ip), vehicle: water) is 109 % of control and the T/C (dose: 100.0 mg/kg/injection, schedule: Q01DX009 (ip), vehicle: water) was 101 % of control.

Take `CC(C)COC(=O)C1(N)CCCC1`: the T/C was 95 % of control under setting [15], 104 % of control under setting [16] and 100 % of control under setting [17].

For the compound `CCOC(=O)NC(=Cc1ccccn1)c1ccc(Cl)cc1` (mixture of isomers), the T/C reads like this: under setting [3], 103 % of control; under setting [4], 97 % of control; under setting [5], 93 % of control.

With `CC12CC3CC(O)(C1)CC(O)(C3)C2`, the T/C reads like this: under setting [6], 100 % of control; under setting [7], 100 % of control; under setting [8], 102 % of control.
